Source: the NIST ThermoML archive (doi:10.1016/j.jct.2008.11.012)

Experiment: xn = mol fraction of the nth substance listed
Conditions: 101 kPa, Liquid; for viscosity: Concentric cylinders viscometry; for mass density: Vibrating tube method

NCCNCCN [di(2-aminoethyl)amine] + O
Conditions | mass density, 293.15 K [kg/m3] | mass density, 303.15 K [kg/m3] | mass density, 313.15 K [kg/m3] | mass density, 323.15 K [kg/m3] | viscosity, 293.15 K [mPa·s] | viscosity, 303.15 K [mPa·s] | viscosity, 313.15 K [mPa·s] | viscosity, 323.15 K [mPa·s]
x1 = 0.0095 | 1001.5 | 998.6 | 994.9 | 990.5 | 1.31 | 1.017 | 0.8263 | 0.6854
x1 = 0.0299 | 1004.2 | 1000.7 | 996.7 | 991.7 | 2.076 | 1.557 | 1.223 | 0.9871
x1 = 0.0565 | 1011.5 | 1007.1 | 1002.2 | 996.8 | 4.009 | 2.841 | 2.101 | 1.615
x1 = 0.0696 | 1014.5 | 1009.6 | 1004.3 | 998.6 | 5.418 | 3.736 | 2.684 | 2.012
x1 = 0.1043 | 1023.8 | 1017.1 | 1010.7 | 1004.2 | 11.63 | 7.329 | 4.877 | 3.423
x1 = 0.125 | 1026.5 | 1019.8 | 1012.9 | 1005.7 | 17.94 | 10.57 | 6.69 | 4.514
x1 = 0.1591 | 1030.7 | 1023 | 1015.4 | 1007.9 | 31.07 | 16.94 | 10.13 | 6.505
x1 = 0.2076 | 1029.4 | 1021.4 | 1013.2 | 1004.8 | 50.68 | 25.63 | 14.34 | 8.733
x1 = 0.2449 | 1027.5 | 1018.6 | 1009.9 | 1001.9 | 59.62 | 29.47 | 16.2 | 9.728
x1 = 0.3099 | 1019.1 | 1010.2 | 1001.5 | 993.1 | 59.42 | 29.55 | 16.32 | 9.836
x1 = 0.3438 | 1014.1 | 1005.7 | 997.1 | 988.4 | 55.52 | 27.97 | 15.61 | 9.492
x1 = 0.4112 | 1004.1 | 995 | 986.4 | 978 | 43.08 | 22.7 | 12.99 | 8.14
x1 = 0.4974 | 992.8 | 983.7 | 975.1 | 966.8 | 30.13 | 16.77 | 10.17 | 6.622
x1 = 0.6111 | 979 | 970.6 | 962.1 | 953.7 | 19.46 | 11.54 | 7.375 | 5.032
x1 = 0.6988 | 971.8 | 962.7 | 954.2 | 945.9 | 15.12 | 9.116 | 5.944 | 4.175
x1 = 0.8073 | 963.4 | 954.3 | 947.3 | 939.1 | 10.61 | 6.899 | 4.741 | 3.445
x1 = 0.8954 | 957.5 | 948.4 | 939.8 | 931.5 | 8.515 | 5.713 | 4.017 | 2.976
x1 = 1 | 951 | 942.3 | 933.8 | 925.5 | 7.038 | 4.804 | 3.4 | 2.695
